According to PubChem BioAssay (NCI):
Values joined by “and” are separate entries in the source; they are usually repeats but may differ in a detail not shown here. Equal values may be shown once.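 Grown in 96-well plates, cells were treated for 48 hours with each compound at five concentrations. Insufficient inhibition: endpoint recorded as highest concentration tested. The concentration for 50% growth inhibition is given as GI50. The concentration for full growth arrest is given as TGI.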

Key:
Experiment in all cases: inhibition of tumour cell growth, NCI panel, 48 h
[1] = tested on: ACHN renal
[2] = tested on: IGROV1 ovarian
[3] = tested on: NCI-H23 lung
[4] = tested on: NCI-H460 lung
[5] = tested on: OVCAR-4 ovarian
[6] = tested on: OVCAR-8 ovarian
[7] = tested on: SNB-75 CNS
[8] = tested on: BT-549 breast
[9] = tested on: PC-3 prostate
[10] = tested on: MCF7 breast

SMILES: CCOc1ccc(NC(=O)/C(CC(=O)c2c[n+](=O)c3ccccc3n2[O-])=N\OCCCc2ccccc2)cc1
- TGI [1]: > 100 µM
- TGI [2]: > 100 µM
- TGI [3]: > 100 µM
- TGI [4]: > 100 µM
- TGI [5]: > 100 µM
- TGI [6]: > 100 µM
- TGI [7]: > 100 µM

SMILES: COc1ccc2[nH]c(C(=O)N3CCN(C(=O)OCc4ccc5c(Cl)cc(Cl)c(O)c5n4)CC3)cc2c1
- GI50 [1]: 0.592 µM
- TGI [1]: 1.87 µM
- GI50 [8]: 1.04 µM
- TGI [8]: 2.34 µM
- GI50 [2]: 0.527 µM
- TGI [2]: 1.86 µM
- GI50 [3]: 1.7 µM
- TGI [3]: 3.47 µM
- GI50 [4]: 1.18 µM
- TGI [4]: 2.76 µM
- GI50 [5]: 1.53 µM
- TGI [5]: 3.07 µM
- GI50 [6]: 1.01 µM
- TGI [6]: 2.42 µM
- GI50 [9]: 1.06 µM
- TGI [9]: 2.67 µM
- GI50 [7]: 1.08 µM
- TGI [7]: 2.4 µM

SMILES: c1ccc2c(c1)[nH]c1c2nc2ccccn21
- TGI [1]: > 100 µM
- TGI [2]: > 100 µM
- TGI [3]: > 100 µM
- TGI [4]: > 100 µM
- TGI [5]: > 100 µM
- TGI [6]: > 100 µM
- GI50 [7]: 45.6 µM and > 100 µM
- TGI [7]: > 100 µM

SMILES: O=C1c2cccc3cccc(c23)C(=O)N1CCCCCN1CCN(CCN=c2cc3n(-c4ccc(Cl)cc4)c4ccccc4nc-3cc2Nc2ccc(Cl)cc2)CC1
- GI50 [1]: 2.88 µM
- TGI [1]: > 50 µM
- GI50 [8]: 22.2 µM
- TGI [8]: > 50 µM
- GI50 [10]: 8.24 µM
- TGI [10]: 38.4 µM
- GI50 [3]: 8.52 µM
- TGI [3]: 22.3 µM
- GI50 [4]: 13.2 µM
- TGI [4]: > 50 µM
- GI50 [5]: 6.22 µM
- TGI [5]: 17.3 µM
- GI50 [6]: 12 µM
- TGI [6]: > 50 µM
- GI50 [9]: 6.36 µM
- TGI [9]: 28.4 µM
- GI50 [7]: 14.5 µM
- TGI [7]: 39.6 µM

SMILES: CCCCCCCC/C=C/CCCCCCCC1=NC(C)(C)CN1C(C)(C)CO
- GI50 [1]: 1.81 µM
- TGI [1]: 3.52 µM
- GI50 [8]: 11.3 µM
- TGI [8]: 24.1 µM
- GI50 [10]: 1.82 µM
- TGI [10]: 3.43 µM
- GI50 [3]: 1.77 µM
- TGI [3]: 3.46 µM
- GI50 [4]: 1.81 µM
- TGI [4]: 3.31 µM
- GI50 [5]: 2.12 µM
- TGI [5]: 4.4 µM
- GI50 [9]: 1.83 µM
- TGI [9]: 4.92 µM
- GI50 [7]: 1.89 µM
- TGI [7]: 5.77 µM

SMILES: CCCC(=O)O[C@]1(C)CC[C@@H]2[C@H]3[C@@H]1[C@@H]1C[C@@](C)(O)[C@H](OC)CC[C@](C)(OC(=O)[C@@H]2C)[C@H]3O1
- GI50 [1]: 35.8 µM
- TGI [1]: > 100 µM
- GI50 [8]: 40.3 µM
- TGI [8]: > 100 µM
- GI50 [2]: 24.9 µM
- TGI [2]: 62 µM
- GI50 [10]: 18.5 µM
- TGI [10]: 33.7 µM
- GI50 [3]: 96.1 µM
- TGI [3]: > 100 µM
- GI50 [4]: 56.3 µM
- TGI [4]: > 100 µM
- GI50 [5]: 22.1 µM
- TGI [5]: 50 µM
- GI50 [6]: 39.1 µM
- TGI [6]: > 100 µM
- GI50 [7]: 16.3 µM
- TGI [7]: 39.2 µM

SMILES: O=c1[nH]ccc(CNC23CC4CC(CC(C4)C2)C3)c1O
- TGI [1]: > 100 µM
- TGI [2]: > 100 µM
- TGI [3]: > 100 µM
- TGI [4]: > 100 µM
- TGI [5]: > 100 µM
- TGI [6]: > 100 µM
- TGI [7]: > 100 µM

SMILES: CC(C)(C)C#COC(=O)c1ccccc1
- TGI [1]: > 100 µM
- TGI [2]: > 100 µM
- TGI [3]: > 100 µM
- TGI [4]: > 100 µM
- TGI [5]: > 100 µM
- TGI [6]: > 100 µM

SMILES: Cc1cc(=O)[nH]c(NNC(C#N)c2cccc([N+](=O)[O-])c2)n1 (stereo not drawn)
- TGI [1]: > 100 µM
- TGI [2]: > 100 µM
- TGI [3]: > 100 µM
- TGI [4]: > 100 µM
- TGI [5]: > 100 µM
- TGI [6]: > 100 µM
- TGI [7]: > 100 µM

SMILES: O=C(Nc1sc2c(c1C(=O)O)CCCC2)c1ccco1
- GI50 [1]: 14.1 µM
- TGI [1]: > 50 µM
- GI50 [8]: > 50 µM
- TGI [8]: > 50 µM
- GI50 [2]: > 50 µM
- TGI [2]: > 50 µM
- GI50 [10]: 26.5 µM
- TGI [10]: > 50 µM
- GI50 [4]: 23.5 µM
- TGI [4]: > 50 µM
- GI50 [6]: > 50 µM
- TGI [6]: > 50 µM
- GI50 [9]: 45.9 µM
- TGI [9]: > 50 µM
- GI50 [7]: > 50 µM
- TGI [7]: > 50 µM

SMILES: COC1(OC)C2(Cl)C3=CCCC=C3C1(Cl)C(Cl)=C2Cl
- TGI [1]: > 100 µM
- TGI [2]: > 100 µM
- TGI [3]: 62.2 µM
- TGI [4]: > 100 µM
- TGI [5]: > 100 µM
- TGI [6]: > 100 µM
- TGI [7]: > 100 µM

SMILES: C/C(=N/NC(=S)Nc1ccccc1)c1nc2ccc(Cl)cc2[nH]1
- GI50 [8]: 0.135 µM
- TGI [8]: 0.924 µM
- GI50 [2]: 0.14 µM
- TGI [2]: 1.19 µM
- GI50 [3]: 0.406 µM
- TGI [3]: 1.52 µM
- GI50 [4]: 0.0351 µM
- TGI [4]: 0.522 µM
- GI50 [5]: 0.0466 µM
- TGI [5]: 2.42 µM
- GI50 [6]: 0.16 µM
- TGI [6]: 1.15 µM
- GI50 [9]: 0.236 µM
- TGI [9]: 2.23 µM
- GI50 [7]: 0.328 µM
- TGI [7]: 1.04 µM

SMILES: Cc1cc(Cl)ccc1NC(=O)CCCC(=O)C1C/C(=N/O)CC/C1=N\O (stereo not drawn)
- TGI [1]: > 100 µM
- TGI [2]: > 100 µM
- TGI [3]: > 100 µM
- TGI [4]: > 100 µM
- TGI [5]: > 100 µM
- TGI [6]: > 100 µM
- TGI [7]: > 100 µM

SMILES: CN(C)CCC(=O)Nc1ccc(-n2cc(-c3cccc(NC(=S)Nc4cccc(-c5cn(-c6ccc(NC(=O)CCN(C)C)cc6)nn5)c4)c3)nn2)cc1
- GI50 [1]: > 100 µM
- TGI [1]: > 100 µM
- GI50 [8]: 22.9 µM
- TGI [8]: 66.4 µM
- GI50 [10]: 3.25 µM
- TGI [10]: 40.3 µM
- GI50 [3]: 57.2 µM
- TGI [3]: > 100 µM
- GI50 [4]: 26.6 µM
- TGI [4]: 96.6 µM
- GI50 [5]: 35.4 µM
- TGI [5]: > 100 µM
- GI50 [6]: 42.3 µM
- TGI [6]: > 100 µM
- GI50 [9]: 85.9 µM
- TGI [9]: > 100 µM
- GI50 [7]: 25.6 µM
- TGI [7]: 65.6 µM

SMILES: Cc1cccc(C)c1NC(=O)C(=O)Cc1nc2ccccc2s1
- TGI [1]: > 100 µM
- TGI [2]: > 100 µM
- TGI [3]: > 100 µM
- TGI [4]: > 100 µM
- TGI [5]: > 100 µM
- TGI [6]: > 100 µM
- TGI [7]: > 100 µM

SMILES: CC(=O)[CH-]C(C)=O.CC(=O)[CH-]C(C)=O.[O-]c1ccccc1.[O-]c1ccccc1.[Ti+4]
- GI50 [1]: > 100 µM
- TGI [1]: > 100 µM
- GI50 [2]: > 100 µM
- TGI [2]: > 100 µM
- GI50 [3]: > 100 µM
- TGI [3]: > 100 µM
- GI50 [4]: > 100 µM
- TGI [4]: > 100 µM
- GI50 [5]: > 100 µM
- TGI [5]: > 100 µM
- GI50 [6]: > 100 µM
- TGI [6]: > 100 µM
- GI50 [7]: > 100 µM
- TGI [7]: > 100 µM

SMILES: O=c1c(Cc2ccccc2)c(O)cc2n1CCC2
- TGI [1]: > 100 µM
- TGI [2]: > 100 µM
- TGI [3]: > 100 µM
- TGI [4]: > 100 µM
- TGI [5]: > 100 µM
- TGI [6]: > 100 µM
- TGI [7]: > 100 µM

SMILES: Cc1nnc2n1N=C(c1ccccc1)C(c1ccccc1)S2 (stereo not drawn)
- TGI [1]: > 100 µM
- TGI [2]: > 100 µM
- TGI [3]: 64 µM
- TGI [4]: > 100 µM
- TGI [5]: > 100 µM
- TGI [6]: > 100 µM
- TGI [7]: 79.7 µM

SMILES: CCOc1c(Br)cc(Br)cc1C=C(C#N)C#N
- TGI [1]: > 10 µM
- TGI [2]: > 10 µM
- TGI [10]: > 10 µM
- TGI [3]: > 10 µM
- TGI [4]: > 10 µM
- TGI [5]: > 10 µM
- TGI [6]: > 10 µM
- TGI [9]: > 10 µM
- TGI [7]: > 10 µM
